From paper PMC7385626 (Scientific Reports, 2020)

Columns and labels:
C6, HeLa, and HT29 cells = assay: DNA laddering (internucleosomal DNA fragmentation); assay type: cell-based
Description: Here, appearances of apoptotic morphology and DNA fragmentation may be a result of the activation of the extrinsic apoptotic pathways, including Ca^2+ dependent endonucleases. Apoptosis assay is determined by controlling cell death which included cleavage of DNA molecule into regular fragments. In this part, we observed that our molecules could act through containing apoptosis on some cells. More studies were conducted to obtain the antiproliferative and apoptotic potentials of Ag molecules which are consistent with this work[70],[75],[75],[79],[80].
By growing C6, HeLa, and HT29 cells were incubated with the molecules at 37 °C for overnight, DNA molecule was isolated in this part, and DNA fragmentation was visualized by agarose gel electrophoresis. […] A-HT29: 1, DNA standard; 2, HT29 Control; 3, HT29 + 2; 4, HT29 + 3; 5, HT29 + 4. B-C6: 1, DNA standard; 2, C6 + 2; 3, C6 + 3; 4, C6 + 4; 5, C6 Control. C-HeLa: 1, DNA standard; 2, HeLa + 2; 3, HeLa + 3; 4, HeLa + 4; 5, HeLa Control.
. Treated cell was harvested using a plastic scraper, and these fixed with 70 % ethanol, and also incubated for 48 hours. The ethanol amount was removed by centrifugation and air drying. The cell pellet was resuspended in 55 μL phosphate-citrate buffer (consisting of 192 parts of 0.2 M Na2HPO4 and 8 parts of 0.1 M citric acid, pH 7.8), and incubated at 37°C for 30 min in a shaker incubator. A 45 μL of supernatant was transferred to a microsantrifuge tube, mixed with 5 μL 0.25% Tween20 solution and 5 μL RNase A enzyme solution and also incubated for 30 min in a shaker incubator. […]

HT29 cells = assay: TUNEL assay; assay type: cell-based, human
Description: […]. We have evaluated the apoptotic effect of the molecules on HT29 cells utilizing the TUNEL method as an immunohistological study to reveal their mechanism of action on cells. The apoptotic activity of the Ag(I) compounds was examined in human colon cancer cells, HT29. […]. […] […].
Figure 8 Phase-contrast and Fluorescence and image of the HT29 cancer cell line examined by TUNEL assay. […].
In situ finding of apoptosis was conducted utilizing a TUNEL method kit conforming to the manufacturer’s mechanism. HT29 cells (30.000 cells/chamber slide section) were conveyed in poly-L-lysine covered chamber slide. […]. Finally, slide was gently washed with cold DPBS and added 4 % paraformaldehyde for fixation for 60 min at room temperature. Following incubation, the cells were blocked with freshly prepared 3 % H2O2 in methanol at room temperature. Then, the cells were exposed to permeabilized solution (0.1 % sodium citrate and 0.1 % Triton X-100) for 2 minutes on ice. At this stage in order to prepare a DNase I enzyme treated as positive control, 10 μl of DNase-I and 90 μl its buffer was added to slide and incubated at room temperature for 10 minutes. The compotent cell was transferred into TUNEL reaction mixture (50 μL/section) involving a TdT and fluorescein-dUTP mix for 1 h at 37 °C, in a humidified phase and protected from light. In the end of the process, the positive cell nuclei obtained a green fluorescent signal which visualized by a Leica fluorescent microscope.

E. coli 111 = assay: Disc diffusion assay; assay type: cell-based, Escherichia coli
Description: (§1) Therefore, the pathogen bacterial flora and the opportunistic agents may be taken into consideration both in the management of cancer patients and in individual susceptibility to cancer. Indeed, dual acting factors with antimicrobial and antiproliferative potentials can result in improved therapeutic efficacy for cancer cell patients or reduced cancer predisposition. […]. In this study, 10 microbial cultures of this part, belonging to ten types of bacterial were used. The culture was grown in Mueller–Hinton Broth (Merck) for all the bacterial strains at 36 °C. Antimicrobial test was carried out by using disc-diffusion assay utilizing 100 µL of suspension with 10^8 CFU/mL of bacteria and 10^6 CFU/mL of yeast spread on Nutrient Agar and Potato Dextrose Agar, respectively. Also, the blank disc (Oxoid = 6 mm in diameter) was impregnated with 20 µL of each substance (105 µg/disc) and placed on the inoculated agar. Negative controls ([…]) were prepared using the same solvent (water) employed to dissolve each substance. […]. The inoculated plate was incubated at 36 °C for clinical bacterial strains. Antimicrobial activities were evaluated by obtaining the zone of inhibitory effect against the test organisms.

S. gallinarum = assay: Disc diffusion assay; assay type: cell-based, Salmonella Gallinarum
Description: as §1

St. pyogenez ATCC176 = assay: Disc diffusion assay; assay type: cell-based, Steptococcus Pyogerez
Description: as §1

CT-DNA = assay: Ethidium bromide exchange (fluorescence quenching) study; assay type: binding, calf
Description: Fig. S13. The emission spectra of EB-bound (a) DNA solutions in the absence and presence of increasing concentrations of 2, 3, and 4 25 μM (b), 50 μM (c), and 75 μM (d). [EB]=10.0 μM (e), [DNA] 50.0 μM. […] (µM) for determining KSV.

B. cereus DSM 4312 = assay: Disc diffusion assay; assay type: cell-based, Bacillus Cereus
Description: as §1

P. aeruginosa ATCC9027 = assay: Disc diffusion assay; assay type: cell-based, Pseudomonas Aureginosa
Description: as §1

E. aerogenes ATCC2924 = assay: Serial microdilution assay (MIC); assay type: cell-based, Enterobacter Aerogenes
Description: (§2) […]. […] Four types of gram-positive bacterial strains (St. pyogenez, B. subtilis, B. cereus, S. aureus) and five types of the gram-negative (S. enteridis, E. aerogenes, P. aeruginosa, E. coli, and S. gallinarum) were sensitive to 4 and 1. […]. The minimal inhibitory concentration value was studied for the microorganism cells, which evaluated to sensitive the substances and they tested in the disc-diffusion method. Inoculate of microorganism was prepared utilizing 12 h suspensions and broth cultures were adjusted to 0.5 McFarland turbidity standard. Each substance was dissolved in 10% dimethyl sulfoxide which diluted to the highest concentration (1000 µg/mL) for testing. […]. Also, prepared suspensions for standard microorganisms were added to each dilution in a 1:1 ratio. Growth act of microorganism cells was determined visually after incubation at 36 °C. The minimum concentration was no visible growth which was taken as the MIC.

S. enteridis ATCC13076 = assay: Serial microdilution assay (MIC); assay type: cell-based, Salmonella Enteritidis
Description: as §2

S. aureus ATCC29213 = assay: Disc diffusion assay; assay type: cell-based, Staphylococcus aureus
Description: as §1

Substance | DNA fragmentation (DNA laddering) (C6, HeLa, and HT29 cells) | apoptosis by TUNEL (HT29 cells) | inhibition zones, E. coli 111 (E. coli 111) | inhibition zones, S. gallinarum (S. gallinarum) | inhibition zones, St. pyogenez ATCC176 (St. pyogenez ATCC176) | KSV (Stern–Volmer quenching constant, EB-DNA) (CT-DNA) | inhibition zones, B. cereus DSM 4312 (B. cereus DSM 4312) | inhibition zones, P. aeruginosa ATCC9027 (P. aeruginosa ATCC9027) | Minimum-inhibitory concentrations (MIC), E. aerogenes ATCC2924 (E. aerogenes ATCC2924) | Minimum-inhibitory concentrations (MIC), S. enteridis ATCC13076 (S. enteridis ATCC13076) | inhibition zones, S. aureus ATCC29213 (S. aureus ATCC29213)
[Cd(N-bishydeten)]4[Ag(CN)2]8[Ag(CN)]2 [Complex 4] | induced the organization of DNA fragmentation | significantly triggered apoptosis | 29 ± 0.58 mm | 37 ± 1.0 mm | 26 ± 0.0 mm | 1.1 ± 0.12 × 10^3 M^−1 | 36 ± 1.0 mm | 30 ± 0.58 mm | 125 ± 53.40 µg/mL | 62.50 ± 0.14 µg/mL | 30 ± 1.0 mm
[Cu(N-bishydeten)Ag3(CN)5] [Complex 2] | induced the organization of DNA fragmentation | significantly triggered apoptosis | 32 ± 0.0 mm | 35 ± 1.0 mm | 32 ± 0.58 mm | 5.0 ± 0.32 × 10^3 M^−1 | 30 ± 0.58 mm | 30 ± 1.0 mm |  |  | 37 ± 1.0 mm
[Zn(N-bishydeten)Ag3(CN)5] [Complex 3] | induced the organization of DNA fragmentation | significantly triggered apoptosis | 30 ± 0.58 mm | 35 ± 0.58 mm | 29 ± 0.58 mm | 13.7 ± 0.41 × 10^3 M^−1 | 34 ± 0.0 mm | 30 ± 1.0 mm |  |  | 25 ± 0.58 mm
